Test system: JFCR39 panel of 39 human tumor cell lines
Test: JFCR39 panel growth inhibition, panel statistics
Assay type: cell-based
Conditions: Homo sapiens; JFCR39 panel; read-out: mean GI50 across all 39 cell lines
Method: JFCR39 drug discovery system was used to measure the growth inhibitory activities and identify the target of KTC1101. The JFCR39 panel consists of 39 cell lines seeded in 96-well plates. After 48-h treatment with KTC1101, cell growth was measured using the sulforhodamine B assay. […] The deviation of log GI50 for each cell line from the average log GI50 across the JFCR39 panel was plotted as a fingerprint. MG-MID (mean of Log GI50 values) represents the average log GI50 for all 39 cell lines. The most sensitive and least sensitive cell lines were identified by calculating the difference in their log GI50 values (Range) and the difference between the most sensitive cell line and the average GI50 on the JFCR39 panel (Delta). The fingerprint of KTC1101 was compared with the fingerprints of reference compounds in the database. The Pearson correlation coefficient (r) was calculated (n = 39).

GI50: 320 nM
SMILES: FC(F)c1nc2ccccc2n1-c1nc(N2CCOCC2)nc(N2CCOCC2)n1 [ZSTK474, reference compound]
